Data published in publication PMC6315057, “Industrial scale high-throughput screening delivers multiple fast acting macrofilaricides” (Nature Communications, 2019).
Values after ≈ are worked out from the molar mass of the structure shown.

Legend:
[1] = test system: Wolbachia in C6/36 (wAlbB) cells; experiment: Secondary concentration response HTS (IC50) anti-Wolbachia screen in C6/36 (wAlbB) insect cells; format: cell-based, Wolbachia pipientis wAlbB (in Aedes albopictus C6/36 cells); conditions: Wolbachia, 168 h, 7-day incubation, 10-point concentration range
Protocol: Initially C6/36 (wAlbB) cells (insect cells stably infected with the Wolbachia target) from a single cryopreserved batch were recovered over 7 days prior to plating into 384-well assay ready plates (containing the test compounds), using a semi-automated process allowing for daily batches of ~150 plates, set up 4 days per week for 8 weeks. After a 7-day incubation period with the test compounds the plates were moved into the second fully automated stage (using the Agilent Technologies BioCel system) involving formaldehyde fixation, DNA staining of the insect cell nuclei (Hoechst) for toxicity analysis and antibody staining specific to the intracellular Wolbachia (wBmPAL primary antibody and far-red secondary antibody). In the final stage the fixed and stained plates from stage 2 were processed through automated data acquisition (High Res Biosolutions system, incorporating EnVision™ and acumen® plate readers). This industry standardised assay was then used to screen AstraZeneca’s full library of 1.3 million compounds within 10 weeks. In total this HTS included 30 × 3 week assays covering 3835 × 384-well plates. This primary HTS generated 20,255 hits defined as >80% reduction in Wolbachia with <60% toxicity to the host insect cell (eliminating false positives). This represents an overall hit rate of 1.56%. These compounds are depicted in chemical space in Fig. 2 (black points)[21].
The mosquito (Aedes albopictus) derived cell line C6/36 (ATCC® CRL 1660), stably infected with Wolbachia pipientis wAlbB (C6/36(wAlbB)), was maintained in Leibovitz L15 medium containing 2 mM L-glutamine, 1% nonessential amino acids, 2% tryptose phosphate broth and 20% heat-inactivated foetal bovine serum (FBS) at 26 °C[18]. This screen exclusively used cells from the large-scale cryopreserved batch produced as part of this campaign by culturing the cells at scale before cryopreservation (90% FBS and 10% DMSO). This produced a cell bank of 190 × 1 ml cryovials containing 3 × 10^7 cells per vial.
(§1) On day 0, a single cryovial was recovered and the cells washed before being transferred to a T225 cm^2 flask. After a 7-day recovery Wolbachia infection level (quality control (QC)) was checked by SYTO®11 DNA staining of both the host cell nuclei and intracellular Wolbachia. The end-point read out from the Operetta® high content imaging system (Perkin Elmer) was the percentage of cells infected with Wolbachia. This was obtained from cytoplasm texture analysis by the associated Harmony® software. Cells with a >50% of the population infected with Wolbachia were classed as having a good Wolbachia level and therefore used for screening through addition of 2000 cells per well into assay ready 384-well plates containing the test compounds. […] Each plate included on-board controls; vehicle/DMSO (total/maximum Wolbachia signal) or doxycycline 5 µM (null/minimum Wolbachia signal), resulting in single shot screening of 352 compounds per plate for the primary screen. […] QC plates were also created including full columns of the following controls; DMSO (total/max), 5 μM doxycycline (null/min), as well as 50 nM doxycycline (reference/medium Wolbachia signal). Daily batches contained ~150 compound plates in addition to the QC plates. Each compound plate was foil sealed before incubation for 7 days at 26 °C, 95% humidity and atmospheric air.
After 7 days of drug incubation, the plates were loaded into the fully automated BioCel system which performed the following additions; fixation and DNA staining (1.8% formaldehyde + 0.6 µg/ml Hoechst 33342, 20 min), permeabilisation (80 μl of PBS + 0.25% Triton-X 100, 30 min), blocking (PBS + 6% BSA, 40 min), overnight incubation in the Wolbachia-specific anti-wBmPAL primary antibody[34] […]

THP-1 cells = experiment: Mammalian cell viability counter-screen (CellTiter-Blue); format: cell-based, human; conditions: Homo sapiens, 48 h, read-out: HTS IC50 mammalian toxicity
Protocol: The human monocytic THP-1 cell line (ATCC® TIB-202) used for mammalian cytotoxicity evaluation was routinely cultured in roller bottles. Growth media consisted of RPMI 1640 supplemented with 10% FBS and 2 mM L-glutamine. Cells were maintained at 37 °C with 95% humidity in 5% CO2 in a shaking incubator.
All compounds selected for secondary IC50 screen were tested in parallel for mammalian cell viability using the CellTiter-Blue® Cell Viability Assay. THP1 cells were removed from culture and plated at 1 × 10^4 cells/well (40 µl) into 384-well assay ready plates and incubated at 37 °C, 5% CO2 for 48 h at 95% humidity. After the addition of CellTiter-Blue Viability reagent (8 µl of a 1:6 dilution) the assay plates were incubated for a further 2 h before fluorescence detected using a PerkinElmer EnVision™ plate reader.

[2] = test system: Wolbachia in C6/36 (wAlbB) cells; experiment: Confirmatory re-assessment in the insect cell screen (cell assay EC50); format: cell-based, Wolbachia pipientis wAlbB (in Aedes albopictus C6/36 cells); conditions: Wolbachia, C6/36; insect cell screen, re-sourced or re-synthesised samples
Source text: To further validate the hit molecules from these 9 clusters, samples were sourced either from the AstraZeneca compound inventory or through re-synthesis. All 18 samples were characterised by nuclear magnetic resonance (NMR) and mass spectroscopy to confirm their chemical structures and by HPLC/LCMS to establish their purity (Supplementary Table 5 and Supplementary Data 1). These samples were also subject to confirmatory re-assessment in both the insect cell screen and Mf assays for anti-Wolbachia potency alongside confirmation of DMPK properties (LogD7.4, aqueous solubility in pH 7.4 PBS, human microsomal turnover, rat hepatocyte turnover and human plasma protein binding) (Fig. 4, Supplementary Figure 1 and Supplementary Table 4).
as §1

[3] = test system: Wolbachia within Brugia malayi Mf; experiment: B. malayi microfilarial (Mf) in vitro anti-Wolbachia assay (wsp:gst qPCR); format: cell-based; conditions: Brugia malayi, 144 h; B. malayi Mf, 6 days; read-out: Mf EC50
Protocol: The Mf were obtained by peritoneal lavage, using a catheter, of gerbils (Meriones unguiculatus) harbouring a patent infection of B. malayi. Mf were purified using a PD-10 desalting column (Fisher), centrifuged (311 RCF for 5 min at room temperature) before the addition of 8000 Mf/well of a 96-well plate (100 µl per well) in complete media consisting of RPMI supplemented with 10% FBS, 1% penicillin streptomycin and 1% amphotericin B. […] Each plate contained doxycycline (5 µM) and DMSO controls. After incubation at 37 °C for 6 days in 5% CO2, visual assessment of Mf motility was performed and scored from 0 to 4 per well (where 0 = no movement and 4 = highly motile). DNA extraction per sample was performed using the QIAmp DNA Mini Kit before quantitative PCR was performed to obtain the ratio of Wolbachia Surface Protein gene copy number (wsp) to Glutathione S-Transferase gene copy number (gst)[36]. The DNA was amplified using the primers as indicated in Supplementary Table 6.
(§2) The wsp:gst ratio data allowed for normalisation of the Wolbachia level to the Mf biomass for each well. The change in wsp:gst for each compound compared to the DMSO control was calculated before normalisation to the onboard doxycycline control to allow for inter-assay comparison.

Rat hepatocyte clearance = format: in vitro ADME
Source text: (§3) The DMPK data used for triaging compounds, including LogD7.4, aqueous solubility, plasma protein binding, microsome and hepatocyte clearance measurements, were generated using the standard AstraZeneca UK high-throughput platform[37],[38].

[4] = Human microsome clearance; format: in vitro ADME; conditions: for microsomal CLint: human, human microsomes
Source text: as §3

LogD7.4 = format: physicochemical; conditions: pH 7.4
Source text: as §3

[5] = Aqueous solubility in pH 7.4 PBS; format: physicochemical; conditions: for solubility: PBS pH 7.4, aqueous buffer, pH 7.4 PBS, read-out: Aqueous solubility in pH7.4 PBS
Source text: as §3

[6] = Human plasma protein binding; format: in vitro ADME; conditions: plasma
Source text: as §3

[7] = test system: Wolbachia within Brugia malayi Mf; experiment: Anti-Wolbachia time-kill analysis (timed wash-out) in B. malayi Mf; format: cell-based; conditions: 10x EC50; maximal reduction 70–90% normalised to vehicle control
Source text: To compare the dynamics of the in vitro phenotype of our hits with existing anti-Wolbachia therapies, we employed a timed wash-out strategy (Fig. 5) at 10x EC50 to establish the anti-Wolbachia time-kill kinetics of the selected chemotypes (1A–5A), using five replicates per compound. […].
Fig. 5 Anti-Wolbachia time-kill analysis. Representatives from the top five clusters (1A–5A), as well as established anti-Wolbachia antibacterials (doxycycline (white), minocycline (grey), rifampicin (black)) were assessed after exposure for 1 day and 2 days before washing and further incubation until the standard 6-day read out. wsp:gst ratio was normalised to the DMSO vehicle control resulting in a read out of mean percentage reduction from control. Doxycycline day 6 treatment represents the result for exposure to doxycycline at 5 µM for a full 6 days (no wash). The box extends from the 25th to the 75th percentile with the median presented by the central line. The whiskers are set at the minimum and maximum therefore indicating the range from five replicates. The cluster number is indicated by colour: cluster 1 (dark blue), 2 (magenta), 3 (teal), 4 (dark gold), and 5 (light blue)
The Mf were obtained by peritoneal lavage, using a catheter, of gerbils (Meriones unguiculatus) harbouring a patent infection of B. malayi. Mf were purified using a PD-10 desalting column (Fisher), centrifuged (311 RCF for 5 min at room temperature) before the addition of 8000 Mf/well of a 96-well plate (100 µl per well) in complete media consisting of RPMI supplemented with 10% FBS, 1% penicillin streptomycin and 1% amphotericin B. Compounds were diluted in complete media and 100 µl was added per well, providing a final concentration of 5 µM, with five replicates per compound. Each plate contained doxycycline (5 µM) and DMSO controls. After incubation at 37 °C for 6 days in 5% CO2, visual assessment of Mf motility was performed and scored from 0 to 4 per well (where 0 = no movement and 4 = highly motile). DNA extraction per sample was performed using the QIAmp DNA Mini Kit before quantitative PCR was performed to obtain the ratio of Wolbachia Surface Protein gene copy number (wsp) to Glutathione S-Transferase gene copy number (gst)[36]. The DNA was amplified using the primers as indicated in Supplementary Table 6.
as §2

Row | Structure (SMILES) | IC50 [1] | IC50 (THP-1 cells) | EC50 [2] | EC50 [3] | Rat hepatocytes CLint (Rat hepatocyte clearance) | microsomal CLint [4] | Metabolic stability (in words) ([4]; in vitro, system not given) | logD (LogD7.4) | Solubility (in words) [5] | solubility [5] | fraction unbound [6] | Exposure time to achieve a maximal Wolbachia reduction [7]
1 | COc1ccc(C(=O)Nc2ccc(CNC(=O)c3ccnn3C)cc2C)cn1 [7A, 6-methoxy-N-(2-methyl-4-((1-methyl-1H-pyrazole-5-carboxamido)methyl)phenyl)nicotinamide] | 1270 nM | 23.2 µM | 1140 nM | ~1160 nM | < 1 µl/min/1x106 cells | < 3 µL/min/mg | high | 2 | good | 100 µM (≈ 37.9 µg/mL) | 0.003 | 
2 | CN(Cc1cccc(Cl)c1)S(=O)(=O)c1ccc2c(c1)C(=O)NCC2 [8A, N-(3-chlorobenzyl)-N-methyl-1-oxo-1,2,3,4-tetrahydroisoquinoline-7-sulfonamide] | 486 nM | > 30.6 µM | 515 nM | 2700 nM | > 300 µl/min/1x106 cells | > 300 µL/min/mg |  | 2.7 |  | 16 µM (≈ 5.84 µg/mL) | 0.05 | 
3 | CN(Cc1cccc(Br)c1)S(=O)(=O)c1ccc2c(c1)C(=O)NCC2 [8B, N-(3-bromobenzyl)-N-methyl-1-oxo-1,2,3,4-tetrahydroisoquinoline-7-sulfonamide] | 535 nM | > 30.6 µM | 873 nM | > 5000 nM | > 300 µl/min/1x106 cells | > 300 µL/min/mg |  | 3.1 |  | 6 µM (≈ 2.46 µg/mL) | 0.034 | 
4 | O=C(Cc1cc(F)cc(F)c1)NCC(=O)NC1C(=O)Nc2ccccc2SC1c1ccccc1 (stereo not shown) [9A, 2-(3,5-difluorophenyl)-N-(2-oxo-2-((4-oxo-2-phenyl-2,3,4,5-tetrahydrobenzo[b][1,4]thiazepin-3-yl)amino)ethyl)acetamide] | 181 nM | > 30.6 µM | 180 nM | > 5000 nM | 28.0 µl/min/1x106 cells | 228 µL/min/mg |  | 3 |  | 105 µM (≈ 50.6 µg/mL) | 0.12 | 
5 | O=C(NCCCn1ccnc1)NC1C(=O)Nc2ccccc2SC1c1cc(F)ccc1F (stereo not shown) [9B, 1-(3-(1H-imidazol-1-yl)propyl)-3-(2-(2,5-difluorophenyl)-4-oxo-2,3,4,5-tetrahydrobenzo[b][1,4]thiazepin-3-yl)urea] | 475 nM | > 30.6 µM | 483 nM | 2700 nM | 171.6 µl/min/1x106 cells | > 300 µL/min/mg |  | 3.8 |  | 43 µM (≈ 19.7 µg/mL) | 0.016 | 
6 | CN(C)c1ccc(O)c2c1C[C@H]1C[C@H]3[C@H](N(C)C)C(O)=C(C(N)=O)C(=O)[C@@]3(O)C(O)=C1C2=O [minocycline, reference compound] |  |  |  |  |  |  |  |  |  |  |  | > 2 days
7 | CO[C@H]1/C=C/O[C@@]2(C)Oc3c(C)c(O)c4c(O)c(c(/C=N/N5CCN(C)CC5)c(O)c4c3C2=O)NC(=O)/C(C)=C\C=C\[C@H](C)[C@H](O)[C@@H](C)[C@@H](O)[C@@H](C)[C@H](OC(C)=O)[C@@H]1C [rifampicin, reference compound] |  |  |  |  |  |  |  |  |  |  |  | > 2 days
